“And” between values parts separate entries of the source, which are not always exact repeats. Equal entries are not always repeated. Where two headings read alike, the source gives them in different places.
Assays:
S102G/R166S AP [1] = molecular target: T1, S102G/R166S AP (Escherichia coli, UniProt P00634, R188S/S124G); details: Table 2
Description: (§1) The following buffers were used over the indicated pH ranges: NaAcetate (4.5–5.5), NaMES (5.5), NaMaleate (6.0–6.5), Tris•HCl (7.0–7.5), NaMOPS (7.0–8.0), NaCHES (8.5–9.0), and NaCAPS (10–10.5).
(§2) The retentate is expected to contain both free and bound ^32Pi. […] Scintillation counting of both the filtrate and retentate was used to measure the concentrations of free and bound ^32Pi at the various AP concentrations, and the fraction ^32Pi bound dependence on the AP concentration was used to determine dissociation constants using a modified binding equation, f bound = (C)×([AP]/([AP]+K [drawing 148] ))+(1–C), where C allows for background levels of apparent binding in the absence of protein.
(§3) To measure the uptake of ^32Pi by the AP sample, the fraction of ^32Pi bound was measured over time starting just after the addition of ^32Pi to the AP samples.

S102G AP = S102G AP (Escherichia coli, UniProt P00634, S124G); details: for trianion versus dianion differential affinity: S102G AP, Table 2
Description: as §2, §3

[2] = cited from earlier work
WT AP [3] = molecular target: T2, WT AP (Escherichia coli, UniProt P00634); details: 0.1–10 µM WT AP, standard buffer
Description: as §1, §2, §3

WT Stp1 = WT Stp1 (Schizosaccharomyces pombe, UniProt P41893); details: pH 6.0, protein up to 500 µM
Description: The buffer conditions, pH, and temperature were the same as those for the WT Stp1 kinetic inhibition assays (Figure S14A).
(EPS) Click here for additional data file.

[4] = molecular target: AP with mutation of Arg166; details: read-out: Pi binding constant of Arg166 mutants; pH 8.0; cited from earlier work
R166S AP = R166S AP (Escherichia coli, UniProt P00634, R188S); details: fit of Figure 4B, two-state model
Method: The tungstate affinity for R166S AP was determined by inhibition of pNPP hydrolysis as was done previously with WT AP [20], but under the standard buffer conditions used in this work. A range of tungstate concentrations was used from at least 5-fold below and above the inhibition constant at each pH.

S102G/R166S AP [5] = molecular target: T1, S102G/R166S AP; details: fit of Figure 4B, two-state model
Method: (§4) After this first incubation, trace ^32Pi was added and the sample was incubated further to allow ^32Pi binding to complete.

WT AP [6] = molecular target: T2, WT AP
Method: as §4
A competition-binding assay at pH 8.0 for WT AP (see Materials and Methods for assay details) under the standard buffer conditions.

[7] = ionic strength I = 0.1 for the value 6.9; cited from earlier work
WT AP [8] = molecular target: T2, WT AP; details: cited from earlier work

T2 sequence (P00634 22-471): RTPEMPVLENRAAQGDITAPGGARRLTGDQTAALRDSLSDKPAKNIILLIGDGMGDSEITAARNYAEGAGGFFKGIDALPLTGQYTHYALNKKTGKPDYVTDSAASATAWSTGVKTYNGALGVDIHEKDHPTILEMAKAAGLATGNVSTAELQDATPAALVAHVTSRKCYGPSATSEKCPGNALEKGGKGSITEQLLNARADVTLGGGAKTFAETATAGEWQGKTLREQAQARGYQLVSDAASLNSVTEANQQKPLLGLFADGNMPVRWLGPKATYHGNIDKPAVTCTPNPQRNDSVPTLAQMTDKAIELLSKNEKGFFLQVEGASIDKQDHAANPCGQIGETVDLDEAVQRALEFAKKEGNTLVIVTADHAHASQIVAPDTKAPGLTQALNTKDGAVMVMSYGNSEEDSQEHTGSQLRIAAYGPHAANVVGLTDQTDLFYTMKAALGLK
Chain of S102G AP (P00634 23-471 S124G): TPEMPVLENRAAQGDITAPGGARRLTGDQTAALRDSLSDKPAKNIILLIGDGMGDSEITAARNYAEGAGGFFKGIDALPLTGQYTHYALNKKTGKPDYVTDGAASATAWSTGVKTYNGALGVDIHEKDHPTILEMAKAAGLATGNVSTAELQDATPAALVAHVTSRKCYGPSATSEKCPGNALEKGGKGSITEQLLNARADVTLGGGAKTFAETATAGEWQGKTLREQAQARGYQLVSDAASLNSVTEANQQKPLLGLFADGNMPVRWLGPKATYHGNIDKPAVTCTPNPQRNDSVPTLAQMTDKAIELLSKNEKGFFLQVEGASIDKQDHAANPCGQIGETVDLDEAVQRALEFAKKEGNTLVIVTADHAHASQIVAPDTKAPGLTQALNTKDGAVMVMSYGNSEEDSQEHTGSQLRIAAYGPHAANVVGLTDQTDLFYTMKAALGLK
T1 sequence (P00634 23-471 S124G/R188S): as the sequence (P00634 23-471 S124G) above, with R166S counted along it
Chain of R166S AP (P00634 23-471 R188S): as the sequence (P00634 23-471 S124G) above, with G102S, R166S counted along it
Chain of WT Stp1 (P41893 whole entry): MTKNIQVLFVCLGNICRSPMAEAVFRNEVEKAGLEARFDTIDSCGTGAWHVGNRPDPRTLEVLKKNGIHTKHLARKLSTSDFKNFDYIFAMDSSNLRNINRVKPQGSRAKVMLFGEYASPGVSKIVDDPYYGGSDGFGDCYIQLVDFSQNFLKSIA

O=P(O)(O)O [PO4^3-]
trianion versus dianion differential affinity (S102G/R166S AP [1]): 4.3×10^5 fold | trianion versus dianion differential affinity (S102G AP): 10^7 fold | trianion versus dianion differential affinity (S102G AP; listed as PO): ~ 10^7 fold | destabilization of Pi trianion binding by the Ser102 alkoxide (S102G AP; WT AP versus S102G AP): ≥ 10^8 fold

COP(=O)(O)O [methyl phosphate dianion, methyl phosphate]
kuncat, uncatalyzed hydrolysis ([2]; 25 °C, 44 of the supplement): ~ 4×10^-22 M^-1s^-1 | kuncat, uncatalyzed hydrolysis [2]: ~4e-22 M⁻¹ s⁻¹

O=P(O)(O)O [Pi, inorganic phosphate]
observed 32Pi uptake rate constant kobs (WT AP [3]): ≥ 0.03 s⁻¹ | Pi binding in the equilibrium-binding assay (WT Stp1): No significant Pi binding | Ki [4]: 460 µM and 640 µM

Nc1ncnc2c1ncn2[C@@H]1O[C@H](COP(=O)(O)OP(=O)(O)OP(=O)(O)O)[C@@H](O)[C@H]1O [ATP]
kuncat, uncatalyzed hydrolysis ([2]; 25 °C, 44 of the supplement): ~ 5×10^-11 M^-1s^-1

Nc1nc2c(ncn2[C@@H]2O[C@H](COP(=O)(O)OP(=O)(O)OP(=O)(O)O)[C@@H](O)[C@H]2O)c(=O)[nH]1 [GTP]
kuncat, uncatalyzed hydrolysis ([2]; 25 °C, 44 of the supplement): ~ 5×10^-11 M^-1s^-1

[O]=[W](=[O])([O-])[O-] [tungstate]
pH-independent dissociation constant for tungstate binding (R166S AP): 170±25 µM | pH-independent dissociation constant for tungstate binding (S102G/R166S AP [5]): 890±90 µM | pH-independent dissociation constant for tungstate dianion binding (WT AP [6]; equilibrium-binding assay via competition with 32Pi, dashed line): 2.06±0.48 µM | Kd (WT AP [6]; read-out: dissociation constant for tungstate binding, pH 8.0, standard buffer): 900 ± 200 nM | solution pKa [7]: ~4 | pH-independent dissociation constant for tungstate dianion binding (WT AP [8]; kinetic inhibition, solid line, data from ref 20): 0.57±0.11 µM | Kd (WT AP [8]; read-out: dissociation constant for tungstate binding, pH 8.0): 1100 nM
